Measured values: US6641840B2, “Sustained release formulations for growth hormone secretagogues” (Pfizer Inc., priority 2000, dated 2003)
Like-named read-outs stand apart in the source and are kept apart here.

Assays:
rat pituitary cells = test: Pituitary cell desensitization - growth hormone release assay; assay type: cell-based; settings: for GH release: treatment 10 nM Compound A 15 min
Protocol: The experiment was designed so that cultures were exposed to a growth hormone secretagogue for 60 min, then growth hormone release was measured during a subsequent 15 min exposure to the same or different growth hormone secretagogue.
Anterior pituitary glands from male Wistar rats (150-175 g, Charles River, Laboratories, Wilmington, Mass.) were collected in Hank's Balanced Salt Solution (#14170, Life Technologies, Gaithersburg, Md.). Glands were minced with a scalpel, then incubated with bacterial protease (Type IX, EC3.4.24.4, #P-6141, Sigma Chemicals, Milwaukee, Wis.) at 10 U/ml to release individual cells. Cells were pelleted by centrifugation at 200×g for 15 min, then suspended in culture medium and plated at a density of 6.0-6.5×10^4 cells per 0.5 ml per well in 48-well tissue culture plates (#3848, Costar Corporation, Cambridge, Mass.). Culture medium consisted of D-MEM (Dulbecco's Modified Eagle Medium) with high glucose and sodium bicarbonate (#11965) supplemented with 10% heat-inactivated horse serum (#26050, Life Technologies, Gaithersburg, Md.), 2.5% fetal bovine serum (#16140, Life Technologies, Gaithersburg, Md.), 0.1 mM MEM non-essential amino acids (#11140, Life Technologies, Gaithersburg, Md.), 100 U/ml nystatin (#15340, Life Technologies, Gaithersburg, Md.) and 50 ug/ml gentamicin sulfate (#15750, Life Technologies, Gaithersburg, Md.). Cultures were maintained for 3-4 days in a humidified, 5% CO2/95% air incubator at 37° C. prior to performing assays for growth hormone release.
For growth hormone release assays, cultures were pre-equilibrated at 37° C. in pre-warmed release medium for 1 h in the presence of a growth hormone secretagogue or excipient (Pretreatment). Release medium consisted of Phenol Red-free D-MEM without bicarbonate (#23800, Life Technologies, Gaithersburg, Md.) supplemented with 25 mM N-[2-hydroxyethyl]piperazine-N′-[2-ethanesulfonic acid] (HEPES), 4.5 g/L glucose, 0.11 g/L sodium pyruvate, 0.584 g/L […] and 0.5% bovine serum albumin (#A-7888, Sigma Chemicals, Milwaukee, Wis.), adjusted to pH 7.4. After pretreatment, the medium was removed and replaced with fresh pre-warmed release medium containing a growth hormone secretagogue or excipient at 0.5 ml/well for 15 min (Treatment). Medium from the Treatment was collected, centrifuged to remove any cells, then assayed for growth hormone content by a conventional double-antibody radioimmunoassay using monkey anti-growth hormone antisera (NIDDK anti-rGH-S-5) and reference rat growth hormone standard (NIDDK-rGH-RP) from Dr. A. F. Parlow, Harbor-UCLA Medical Center, Torrance, Calif. Immune complexes were precipitated using goat anti-monkey immunoglobulin G (#55418, Cappel, Durham, N.C.).
Growth hormone secretagogue solutions were prepared at 1000 times the desired concentration and diluted into pre-warmed release medium immediately before use. Peptides such as His-D-Trp-Ala-Trp-Ala-Trp-D-Phe-Lys-NH2 (GHRP-6, #8061, Peninsula Laboratories, Belmont, Calif.) and rat growth hormone releasing factor (GHRH, #8068, Peninsula Laboratories, Belmont, Calif.) were dissolved at 100 μM in 4 mM acetic acid, 10% ethanol, 0.1% bovine serum albumin; other growth hormone secretagogues were dissolved at 5 mM in dimethyl sulfoxide.

[1] = Excipient selection based on active compound solubility screening; assay type: physicochemical; settings: for solubility at 5 min: filtrate of excipient solution in water, 37 °C, thermodynamic from solid
Protocol: Such excipients are useful in making osmotic sustained release tablets. […] The active compound solubility measured in this manner exceeded 150 mgA/ml (mgA is the milligrams of active compound).
The excipients were screened by preparing a saturated solution (unless otherwise noted) of the candidate excipient in water at 37° C. for 2 hrs, and filtering the undissolved portion. […] The solution was maintained at 37° C. for 5 minutes prior to making the visual observation for any undissolved particulates.

CN1N=C2CCN(C(=O)[C@@H](COCc3ccccc3)NC(=O)C(C)(C)N)C[C@@]2(Cc2ccccc2)C1=O.O=C(O)C(O)C(O)C(=O)O [Compound A]
not: growth hormone release response (rat pituitary cells; after pretreatment with GHRP-6)
7.64 ± 1.92 ng/mL/15 min: GH release (rat pituitary cells; pretreatment 100 nM GHRP-6 60 min)
25.17 ± 4.32 ng/mL/15 min: GH release (rat pituitary cells; pretreatment none)
100 to 150 mg/mL: solubility at 5 min ([1]; aqueous with cosolvent or surfactant or cyclodextrin, cyclodextrin, sulfobutylether solution, approx. 1000 mg/ml, 37° C., read-out: COMPOUND A Solubility) | solubility at 5 min ([1]; aqueous with cosolvent or surfactant or cyclodextrin, sulfobutylether cyclodextrin, read-out: active compound substance solubility)
36.99 ± 2.43 ng/mL/15 min: GH release (rat pituitary cells; pretreatment 100 nM GHRH 60 min)
cloudy gel: visual observation on addition of Compound A ([1]; L-lysine solution 50 mg/ml, 37° C.) | visual observation on addition of Compound A ([1]; saturated potassium chloride solution, 37° C.) | visual observation on addition of Compound A ([1]; saturated sodium chloride solution, 37° C.) | visual observation on addition of Compound A ([1]; saturated sodium citrate solution, 37° C.) | visual observation on addition of Compound A ([1]; saturated sodium phosphate monobasic solution, 37° C.) | visual observation on addition of Compound A ([1]; saturated sodium phosphate tribasic solution, 37° C.)
stimulation of growth hormone release: growth hormone release response (rat pituitary cells; after pretreatment with GHRH)
> 150 mg/mL: solubility at 5 min ([1]; aqueous buffer, saturated L-aspartic acid solution, approx. 7 mg/ml, 37° C., read-out: COMPOUND A Solubility) | solubility at 5 min ([1]; aqueous buffer, saturated ascorbic acid solution, approx. 400 mg/ml, 37° C., read-out: COMPOUND A Solubility) | solubility at 5 min ([1]; aqueous buffer, saturated citric acid solution, approx. 600 mg/ml, 37° C., read-out: COMPOUND A Solubility) | solubility at 5 min ([1]; aqueous buffer, saturated fumaric acid solution, approx. 10 mg/ml, 37° C., read-out: COMPOUND A Solubility) | solubility at 5 min ([1]; aqueous buffer, saturated sodium bitartrate solution, approx. 110 mg/ml, 37° C., read-out: COMPOUND A Solubility) | solubility at 5 min ([1]; aqueous buffer, saturated succinic acid solution, approx. 80 mg/ml, 37° C., read-out: COMPOUND A Solubility) | solubility at 5 min ([1]; aqueous buffer, sodium bitartrate buffer, read-out: solubility of the active compound) | solubility at 5 min ([1]; aqueous buffer, tartaric acid solution 50 mg/ml (below saturation), 37° C., read-out: COMPOUND A Solubility) | solubility at 5 min ([1]; aqueous with cosolvent or surfactant or cyclodextrin, polyethylene glycol (Carbowax 3350) 50 mg/ml, 37° C., read-out: COMPOUND A Solubility) | solubility at 5 min ([1]; visual screening, 37° C., read-out: active compound solubility measured in this manner) | solubility at 5 min ([1]; water, calcium stearate < 1 mg/ml, prepared at 2 mg/mL, 37° C., read-out: COMPOUND A Solubility) | solubility at 5 min ([1]; water, magnesium stearate < 1 mg/ml, 37° C., read-out: COMPOUND A Solubility) | solubility at 5 min ([1]; water, microcrystalline cellulose (Avicel PH102) < 1 mg/ml, prepared at 80 mg/ml, 37° C., read-out: COMPOUND A Solubility) | solubility at 5 min ([1]; water, microcrystalline cellulose, silicified (Prosolv SMCC50) < 1 mg/ml, prepared at 80 mg/ml, 37° C., read-out: COMPOUND A Solubility)
clear gel: visual observation on addition of Compound A ([1]; sodium lauryl sulfate solution 50 mg/ml, 37° C.)
< 50 mg/mL: solubility at 5 min ([1]; aqueous buffer, L-lysine solution 50 mg/ml (below saturation), 37° C., read-out: COMPOUND A Solubility) | solubility at 5 min ([1]; aqueous buffer, saturated L-arginine solution, approx. 150 mg/ml, 37° C., read-out: COMPOUND A Solubility) | solubility at 5 min ([1]; aqueous buffer, saturated potassium phosphate monobasic solution, approx. 400 mg/ml, 37° C., read-out: COMPOUND A Solubility) | solubility at 5 min ([1]; aqueous buffer, saturated sodium citrate solution, approx. 520 mg/ml, 37° C., read-out: COMPOUND A Solubility) | solubility at 5 min ([1]; aqueous buffer, saturated sodium phosphate monobasic solution, approx. 1000 mg/ml, 37° C., read-out: COMPOUND A Solubility) | solubility at 5 min ([1]; aqueous buffer, saturated sodium phosphate tribasic solution, approx. 290 mg/ml, 37° C., read-out: COMPOUND A Solubility) | solubility at 5 min ([1]; saline or isotonic, saturated potassium chloride solution, approx. 360 mg/ml, 37° C., read-out: COMPOUND A Solubility) | solubility at 5 min ([1]; saline or isotonic, saturated sodium chloride solution, approx. 360 mg/ml, 37° C., read-out: COMPOUND A Solubility)
50 to 100 mg/mL: solubility at 5 min ([1]; aqueous with cosolvent or surfactant or cyclodextrin, sodium lauryl sulfate solution, approx. 50 mg/ml, 37° C., read-out: COMPOUND A Solubility)
